Data published in US5075322A, “Selenophen derivatives, a preparation process of the same and therapeutical compositions containing them” (Societe de Conseils de Recherches et d'Applications …, priority 1989, dated 1991).

Experiments:
[1] = test system: ovalbumine-induced bronchospasm; test: ovalbumine-induced bronchospasm in anaesthetized passively sensitized guinea-pigs; type: in vivo
Protocol: In the ovalbumine-induced bronchospasm in anaesthetized passively sensitized guinea-pigs, compound XI and ketotifen, administered 1 hour before the injection of ovalbumine, inhibit the bronchoconstriction (>90%) in a dose-dependant-manner respectively with following ED50 (P.O.)
For both products, the activity disappears at 24 hours.
The kinetic results, after administration by oral route of the said compounds at 0.1 mg/kg and 0.05 mg/kg (P.O.), for 1 to several hours before ovalbumine injection (1 mg/kg), are reported respectively in tables 1 and 2.
(§1) The different symbols NS, *, ** and *** which may be found in the different tables, mean that the result is respectively not significative, significative, very significative and highly significative.

[2] = test system: ovalbumine-induced bronchospasm; test: ovalbumine-induced bronchospasm in actively sensitized guinea pigs; type: in vivo; settings: Table III, 0.1 mg/kg PO
Excerpt: as §1

[3] = test system: ovalbumine-induced bronchospasm; test: ovalbumine-induced bronchoconstriction in passively sensitized rats; type: in vivo; settings: for Percentage of bronchoconstriction / Percentage of effect: Table IV
Excerpt: as §1

[4] = test system: histamine induced bronchospasm; test: histamine-induced bronchospasm in artificially ventilated anaesthetized guinea pigs; type: in vivo; settings: for % of bronchoconstriction / % of effect: Table V, 0.1 mg/kg PO
Protocol: as §1
The kinetic results of the administration of compound XI and ketotifen by oral route at 0.1 mg/kg (P.O.), 1 to 27 h histamine injection (15 mg IV), are reported in table 5.

[5] = test system: B.S.A.-induced immune lethality in mice; test: B.S.A.-induced immune lethality (anaphylactic shock) in actively sensitized mice; type: in vivo
Excerpt: as §1
At the same dose, ketotifen has no effect.

[6] = test system: rat washed platelets; test: PAF-induced aggregation of rat washed platelets in vitro; type: cell-based; settings: Platelet, PAF 5.10^-10 M
Excerpt: In vitro: effects on aggregation (IC50) induced by PAF (5·10^-10 M), rat washed platelets are as follow: IC50 Compound XI 2.10^-6 M. IC50 Ketotifen 10^-5 M.

[7] = test system: PAF induced bronchospasm; test: PAF-induced bronchospasm in artificially-ventilated anaesthetized guinea pigs; type: in vivo; settings: for Percentage of bronchoconstriction / Percentage of effect: Table VII, PAF 60 mg/kg IV
Excerpt: as §1

[8] = anti-allergic activity (general statements)
[9] = test system: histamine induced bronchospasm; test: histamine-induced bronchospasm in artificially ventilated anaesthetized guinea pigs; type: in vivo; settings: Cavia porcellus, po, 1 h, read-out: ED50 (P.O.)
[10] = Table I, 0.1 mg/kg PO, pretreatment 1 h
[11] = Table I, 0.1 mg/kg PO, pretreatment 3 h
[12] = Table I, 0.1 mg/kg PO, pretreatment 6 h
[13] = Table I, 0.1 mg/kg PO, pretreatment 9 h
[14] = Table I, 0.1 mg/kg PO, pretreatment 15 h
[15] = Table I, 0.1 mg/kg PO, pretreatment 18 h
[16] = Table I, 0.1 mg/kg PO, pretreatment 21 h
[17] = Table I, 0.1 mg/kg PO, pretreatment 24 h
[18] = Table II, 0.05 mg/kg PO, pretreatment 1 h
[19] = Table II, 0.05 mg/kg PO, pretreatment 3 h
[20] = Table II, 0.05 mg/kg PO, pretreatment 6 h
[21] = Table II, 0.05 mg/kg PO, pretreatment 9 h
[22] = Table II, 0.05 mg/kg PO, pretreatment 15 h
[23] = Table II, 0.05 mg/kg PO, pretreatment 18 h
[24] = Table II, 0.05 mg/kg PO, pretreatment 21 h

CN1CCC(=C2c3ccccc3CC(=O)c3[se]ccc32)CC1 [Compound XI, 4-(1-methyl 4-piperidyliden) 9,10-dihydro 4H-benzo [4,5] cyclohepta [1,2-b] selenophen 10-one]
time at which the activity disappears ([1]; 0.1 mg/kg and 0.05 mg/kg P.O.): 24 h | ED50 ([1]; Cavia porcellus, po, 1 h, read-out: ED50 (P.O.)): 0.0572 µmol/kg | % of bronchoconstriction [1, 10]: 6.9 ± 1.0% | % of effect [1, 10]: -91.5 ± 1.3% | % of bronchoconstriction [1, 11]: 3.9 ± 1.1% | % of effect [1, 11]: -93.7 ± 1.7% | % of bronchoconstriction [1, 12]: 15.0 ± 11.5% | % of effect [1, 12]: -75.9 ± 18.4% | % of bronchoconstriction [1, 13]: 35.7 ± 18.8% | % of effect [1, 13]: -60.1 ± 21.1% | % of bronchoconstriction [1, 14]: 38.9 ± 13.7% | % of effect [1, 14]: -50.7 ± 17.3% | % of bronchoconstriction [1, 15]: 36.8 ± 17.5% | % of effect [1, 15]: -62.0 ± 18.1% | % of bronchoconstriction [1, 16]: 73.3 ± 14.2% | % of effect [1, 16]: -24.3 ± 14.7% | % of bronchoconstriction [1, 17]: 45.4 ± 15.2% | % of effect [1, 17]: -27.1 ± 24.4% | % of bronchoconstriction [1, 18]: 13.2 ± 5.4% | % of effect [1, 18]: -85.1% | % of bronchoconstriction [1, 19]: 17.7 ± 7.0% | % of effect [1, 19]: -80.5% | % of bronchoconstriction [1, 20]: 38.3 ± 16.5% | % of effect [1, 20]: -60.4% | % of bronchoconstriction [1, 21]: 49.2 ± 16.7% | % of effect [1, 21]: -49.2% | % of bronchoconstriction [1, 22]: 61.6 ± 18.7% | % of effect [1, 22]: -6.5% | % of bronchoconstriction [1, 23]: 50.7 ± 20.4% | % of effect [1, 23]: -48.3% | % of bronchoconstriction [1, 24]: 94.6 ± 4.4% | % of effect [1, 24]: -3.5% | inhibition of bronchoconstriction ([1]; administered 1 hour before ovalbumine, P.O., dose-dependent): > 90% | % of bronchoconstriction ([2]; pretreatment 1 h): 3.5 ± 1.1% | % of effect ([2]; pretreatment 1 h): -96.1 ± 1.3% | % of bronchoconstriction ([2]; pretreatment 3 h): 5.0 ± 1.6% | % of effect ([2]; pretreatment 3 h): -93.4 ± 2.1% | % of bronchoconstriction ([2]; pretreatment 6 h): 2.1 ± 0.6% | % of effect ([2]; pretreatment 6 h): -97.3 ± 0.8% | % of bronchoconstriction ([2]; pretreatment 9 h): 35.5 ± 15.9% | % of effect ([2]; pretreatment 9 h): -61.1 ± 22.2% | % of bronchoconstriction ([2]; pretreatment 15 h): 42.2 ± 16.6% | % of effect ([2]; pretreatment 15 h): -50.6 ± 19.5% | % of bronchoconstriction ([2]; pretreatment 18 h): 67.1 ± 19.0% | % of effect ([2]; pretreatment 18 h): +22.7 ± 34.8% | % of bronchoconstriction ([2]; pretreatment 21 h): 50.1 ± 21.6% | % of effect ([2]; pretreatment 21 h): -8.3 ± 39.5% | Percentage of bronchoconstriction ([3]; 0.1 mg/kg PO): 18.1 ± 6.3% | Percentage of effect ([3]; 0.1 mg/kg PO): -49.4% | Percentage of bronchoconstriction ([3]; 1 mg/kg PO): 11.2 ± 2.7% | Percentage of effect ([3]; 1 mg/kg PO): -68.7% | inhibition of bronchoconstriction (in words) ([3]; passively sensitized rats): inhibits the bronchoconstriction in a dose-dependant manner | % of bronchoconstriction ([4]; 1 h): 2.0 ± 0.8% | % of effect ([4]; 1 h): -97.5 ± 1.0% | % of bronchoconstriction ([4]; 3 h): 1.0 ± 1.0% | % of effect ([4]; 3 h): -98.8 ± 1.2% | % of bronchoconstriction ([4]; 6 h): 5.4 ± 3.2% | % of effect ([4]; 6 h): -93.5 ± 3.8% | % of bronchoconstriction ([4]; 9 h): 4.9 ± 1.7% | % of effect ([4]; 9 h): -93.6 ± 2.3% | % of bronchoconstriction ([4]; 15 h): 36.6 ± 8.4% | % of effect ([4]; 15 h): -48.2 ± 11.8% | % of bronchoconstriction ([4]; 18 h): 34.9 ± 18.1% | % of effect ([4]; 18 h): 61.7 ± 19.9% | % of bronchoconstriction ([4]; 21 h): 52.9 ± 9.7% | % of effect ([4]; 21 h): 37.6 ± 11.5% | % of bronchoconstriction ([4]; 24 h): 37.9 ± 9.9% | % of effect ([4]; 24 h): -42.3 ± 15.0% | % of bronchoconstriction ([4]; 27 h): 76.8 ± 10.2% | % of effect ([4]; 27 h): +6.3 ± 14.1% | inhibition of bronchoconstriction (in words) ([4]; administered 1 hour before histamine (15 mg IV)): inhibit significantly the bronchoconstriction in a dose-dependant-manner | duration of total inhibition of the bronchospasm ([4]; during the first hours, 0.1 mg/kg P.O.): 9 h | protective effect (in words) ([5]; 0.275 mg/kg P.O.): shows a protective effect | Mortality at 24 hours, % of mortality ([5]; 0.275 mg/kg PO): 20% | Mortality at 24 hours, % of variation ([5]; 0.275 mg/kg PO): -67.5% | Mortality at 24 hours, number of killed ([5]; 0.275 mg/kg PO): 2/10 | Mortality at 24 hours, % of mortality ([5]; 0.550 mg/kg PO): 10% | Mortality at 24 hours, % of variation ([5]; 0.550 mg/kg PO): -83.7% | Mortality at 24 hours, number of killed ([5]; 0.550 mg/kg PO): 1/10 | IC50 [6]: 2000 nM | inhibition of PAF induced bronchospasm (in words) ([7]; 1 hour before PAF, 0.1 mg/kg): significantly inhibits the bronchospasm | Percentage of bronchoconstriction ([7]; 0.1 mg/kg PO): 29.4 ± 7.9% | Percentage of effect ([7]; 0.1 mg/kg PO): -62.5% | Percentage of bronchoconstriction ([7]; 1 mg/kg PO): 23.0 ± 9.7% | Percentage of effect ([7]; 1 mg/kg PO): -70.6% | anti-allergic activity compared with compound X [8]: higher activity than compound X | histamine and ovalbumine antagonist activity ([8]; oral drug): powerful histamine and ovalbumine antagonist | ED50 [9]: 0.0169 µmol/kg
